According to ChEMBL document CHEMBL1125999 (Bioorg Med Chem Lett, 1991):

How the values were obtained:
D(1A) dopamine receptor = D(1A) dopamine receptor (Bos taurus, UniProt Q95136); assay: In vitro binding affinity towards Dopamine D1 receptor using [3H]-SCH- 23390 as radioligand
D(2) dopamine receptor = D(2) dopamine receptor (Bos taurus, UniProt P20288); assay: In vitro binding affinity towards Dopamine D2 receptor using [3H]spiperone as radioligand
[1] = Dissociation constant was evaluated; type: physicochemical

Sequence of D(2) dopamine receptor (P20288 whole entry): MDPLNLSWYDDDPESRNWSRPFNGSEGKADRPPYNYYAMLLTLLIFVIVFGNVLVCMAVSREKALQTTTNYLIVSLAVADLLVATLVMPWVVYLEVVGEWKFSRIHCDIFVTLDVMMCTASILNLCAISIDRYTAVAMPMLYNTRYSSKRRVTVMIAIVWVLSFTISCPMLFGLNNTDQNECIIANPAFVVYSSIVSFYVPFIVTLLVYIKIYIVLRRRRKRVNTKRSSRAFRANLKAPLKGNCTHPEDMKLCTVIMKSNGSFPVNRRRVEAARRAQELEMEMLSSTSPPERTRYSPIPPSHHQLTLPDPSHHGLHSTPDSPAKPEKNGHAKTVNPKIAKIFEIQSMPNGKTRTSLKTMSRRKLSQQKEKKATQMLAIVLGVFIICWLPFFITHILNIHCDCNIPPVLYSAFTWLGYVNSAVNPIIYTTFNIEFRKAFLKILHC
Sequence of D(1A) dopamine receptor (Q95136 whole entry): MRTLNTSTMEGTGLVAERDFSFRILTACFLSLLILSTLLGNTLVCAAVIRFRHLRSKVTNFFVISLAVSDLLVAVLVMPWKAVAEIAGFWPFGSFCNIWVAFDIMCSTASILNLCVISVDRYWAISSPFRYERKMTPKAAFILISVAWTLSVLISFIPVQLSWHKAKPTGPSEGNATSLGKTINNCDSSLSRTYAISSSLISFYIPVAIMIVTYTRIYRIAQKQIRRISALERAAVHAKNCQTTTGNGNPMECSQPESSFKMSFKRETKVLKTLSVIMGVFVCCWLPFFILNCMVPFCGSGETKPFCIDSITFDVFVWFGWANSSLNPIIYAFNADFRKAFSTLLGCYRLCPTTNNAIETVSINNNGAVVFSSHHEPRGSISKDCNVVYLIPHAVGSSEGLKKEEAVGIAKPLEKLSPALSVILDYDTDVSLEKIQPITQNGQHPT

Row | IC50 (D(1A) dopamine receptor) [µM] | pKa [1] | Structure (SMILES) | IC50 (D(2) dopamine receptor) [µM]
1 | > 100 | – | CCCN(CCC)CCc1ccc2[nH]c(O)nc2c1 | > 100
2 | > 100 | 9.8 | CCCN(CCC)CCc1ccc2[nH]c(S)nc2c1 | 1
3 | > 100 | 9.5 | CCCN(CCC)CCc1ccc2[nH]c(=O)c(=O)[nH]c2c1 | 3

More lines, now with the values behind:

Row | Structure (SMILES) | IC50 (D(1A) dopamine receptor) [µM] | pKa [1] | IC50 (D(2) dopamine receptor) [µM]
4 | CCCN(CCC)CCc1ccc(NC(=O)C(F)(F)F)c(NC(=O)C(F)(F)F)c1 | > 100 | – | > 100
5 | CCCN(CCC)CCc1ccc2nn[nH]c2c1 | > 100 | – | 50
6 | CCCN(CCC)CCc1ccc(NC(C)=O)c(NC(C)=O)c1 | > 100 | – | > 100
7 | NCCc1ccc(O)c(O)c1 [DOPAMINE] | 0.2 | – | –
